Reference: patent US11746103B2, “ALK-5 inhibitors and uses thereof” (Sumitomo Pharma Oncology, Inc., priority 2020, dated 2023)
“Also recorded” adds a separate entry of the source.

Experiments:
[1] = tested on: human CD4+CD45RA+ naïve T cells; assay: In vitro Treg differentiation study; assay type: cell-based; details: CD3/CD28+IL2+TGFβ, 5 days
Protocol: The effect of EX-11 on Treg differentiation was evaluated using human CD4^+CD45RA^+ naïve T cells from Lonza. CD4^+/CD45RA^+ naïve T cells were treated with EX-11, CD3/CD28 ([…] Technologies) and 10 ng/ml of IL-2 (Thermo Fisher Scientific) with or without 5 ng/ml TGFβ (R&D Systems) in ImmunoCult™-XF T cell expansion medium for 5 days. Flow cytometry was performed using anti-human FoxP3 staining kit (BD biosciences) to evaluate the frequency of CD4^+CD25^+Foxp3^+ Treg cells.

EMT6 tumors = assay: Immunohistochemistry (CD31, CD45) of EMT6 tumors; assay type: in vivo, mouse
Description: EX-11 is an ALK5 inhibitor that has been proposed to affect multiple processes in the tumor microenvironment through downregulation of TGF-β signaling, including vasculature remodeling and leukocyte infiltration. The objective of this study was to compare the levels of CD31 and CD45, subject to different treatment conditions in 4T1, EMT6, and S91 tumors. CD31 is an established marker of vascular differentiation, and CD45 is an established marker of leukocytes.
For IHC analyses, tumors from three syngeneic models of cancer were used: • 1) Example L: 4T1 (triple-negative breast cancer [TNBC]); Balb/c mice • 2) Example K: EMT6 (TNBC); Balb/C mice • 3) Example M: S91 (melanoma); DBA/2 mice
Tumors were fixed in formalin for 48 hours, then stored in […] prior to paraffin embedding. Embedded blocks were sectioned at […] and placed on glass slides for IHC staining.
Leica Biosystems Bond Software and Leica Bond Rx Research Stainer were used per protocol to stain tissue sections. […] Images were manually scored by a pathologist, blinded to treatment information. […] CD45 was scored by calculating the number of CD45-positive cells divided by the total number of viable nucleated cells within the whole tumor region(s). CD31 density was scored by calculating the total number of CD31 positive vessels divided by the whole tumor area (mm^2).

[2] = tested on: cancer associated fibroblast (CAF) genes in human primary dermal fibroblasts; assay: CAF gene suppression assay (qPCR); assay type: cell-based
Protocol: Human primary dermal fibroblasts (ATCC) were divided into four groups: DMSO-TGFβ, DMSO+TGFβ (1 ng/mL), 30 nM EX-11+TGFβ (1 ng/mL), and 300 nM EX-11+TGFβ (1 ng/mL). Cells were treated for 24 hours, then mRNA was extracted, quantified, and reverse transcribed. qPCR was run for the following cancer associated fibroblast (CAF) genes: ACTA2, FAP, ITGB1, CD9, TAGLN, ANTXR1, SOC1, Lamp5, Col1A2, and TGFβ1, using the TaqMan system in a Quant Studio.

ES-2-luc cells = assay: Cachexia model (ES-2 clear cell carcinoma); assay type: in vivo, mouse; details: 150 mg/Kg BID
Description: TGF-β1 signaling regulates ovarian cancer progression during initial carcinogenesis, tumor dissemination, and reestablishment of ascites through peritoneal cavity. Clear cell carcinoma is a specifically aggressive and therapy-resistant subtype of epithelial ovarian cancer. ES-2 clear cell carcinoma in vivo model was used to test efficacy of EX-11 in reducing ovarian tumor burden as determined by ascites fluid volume assessment. Because ALK5 signaling can regulate muscle growth and wasting, the efficacy of EX-11 in preventing ovarian cancer-induced cachexia was tested. Muscle health was assessed using histological evaluation of heart muscle tissue, and by comparison of gross weight of hind limb between the different treatment groups.
Sixteen-week-old female athymic nude mice were injected with two million ES-2-luc cells. […]
Mortality was recorded for animals found dead in the cage, and for the animals sacrificed based on humane end point based on main three criteria—loss of mobility and response, wasting with pronounced ascites fluid buildup, and palpable drop in body temperature (animals were assessed as cold to touch when handled in gloves).
On study day 22, the remaining surviving animals in the vehicle group were determined moribund, and the study was terminated based on humane end point criteria. […]

In the case of `Cc1cccc2c(Nc3ccnc(Nc4cccc(N5CCOCC5)c4)n3)cnnc12` [EX-11, N4-(8-methylcinnolin-4-yl)-N2-(3-morpholinophenyl)pyrimidine-2,4-diamine], the “Treg frequency (CD4+CD25+Foxp3+ Treg cells as percentage of cells not treated with TGFβ)” value ([1]; 30 nM) is reported as 480%, the “Treg frequency (CD4+CD25+Foxp3+ Treg cells as percentage of cells not treated with TGFβ)” value ([1]; 300 nM) is reported as 342% and the “Treg frequency (CD4+CD25+Foxp3+ Treg cells as percentage of cells not treated with TGFβ)” value ([1]; 3000 nM) is reported as 126%. For the same molecule, the “CD31 staining (blood vessel density)” value (EMT6 tumors) was “no difference in CD31 staining”, the “CD45 (percentage of CD45+ cells)” value (EMT6 tumors; vs anti-PD-1 and vehicle groups) was “increased” and the “TAGLN, Lamp5 and TGFβ1 expression” value ([2]; 300 nM + TGFβ 1 ng/mL) was “returned to baseline”. The “decrease of FAP, SDC1 and Col1A2 expression from baseline” value ([2]; 300 nM + TGFβ 1 ng/mL) was 20-30%, the “TGFβ-induced upregulation of CAF gene expression” value ([2]; 30 and 300 nM + TGFβ 1 ng/mL, 24 hours, all genes except CD9) was “dose dependently reversed” and the “ascites fluid volume compared to vehicle” value (ES-2-luc cells) was “reduction in total fluid volume; also recorded: reduced ascites fluid volume”. For the same molecule, the “whole hind limb weight compared to vehicle” value (ES-2-luc cells) was “recorded higher; also recorded: improved hind limb weight retention”.
